Laboratory results reported in patent US8410168B2, “Methods and compositions for treating ophthalmic conditions with retinyl derivatives” (Acucela, Inc., priority 2004, dated 2013).

Experiments:
[1] = system: patients with a variety of cancers; details: human patients; cited from earlier work
LRAT [2] = molecular target: T1, LRAT (Bos taurus, UniProt Q9BGL2); test: In vitro LRAT assay, retinyl ester synthesis by bovine RPE membranes/microsomes; type: biochemical
T1 construct: bovine RPE microsomes are used as an enzyme source; from tissue; host or cells: bovine retinal pigment epithelium (membranes / microsomes)
T1 sequence (Q9BGL2 1-230): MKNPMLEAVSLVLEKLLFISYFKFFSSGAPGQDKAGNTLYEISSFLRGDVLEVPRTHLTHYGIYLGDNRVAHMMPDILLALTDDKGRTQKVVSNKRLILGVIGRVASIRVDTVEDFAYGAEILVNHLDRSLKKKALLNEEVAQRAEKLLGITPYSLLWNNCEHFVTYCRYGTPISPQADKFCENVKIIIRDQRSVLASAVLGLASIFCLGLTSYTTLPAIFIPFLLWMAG
Procedure: (§1) We examined the effects on HPR on enzymes or proteins of the visual cycle using in vitro biochemical assays. Specifically, the utilization of exogenous all-trans retinol by membranes prepared from bovine RPE was studied. […] Steady-state levels of HPR in the RPE (determined from mice which have been given 20 mg/kg HPR, i.p., daily for 28 days) range from 5-10 μM. With this in mind, we examined the effects of 10 μM HPR on production of all-trans retinyl esters and 11-cis retinol in assays similar to those described above. […] In the presence of endogenous retinoids, utilization of exogenous all-trans retinol is extremely low and 11-cis retinol is produced solely from the endogenous all-trans retinyl esters. […] Thus, the retinoic acids appear to affect at least two targets in the visual cycle. We have determined that HPR-induced reduction of 11-cis retinol biosynthesis occurs via LRAT inhibition and reduction in all-trans retinyl ester levels. In this situation, the isomerase enzyme is starved for substrate and 11-cis retinol production declines.
A second target for HPR in the visual cycle was identified using in vitro biochemical assays. Lecithin retinol acyl transferase (LRAT) catalyzes the conversion of retinol into retinyl esters. LRAT is critical not only for retinol-retinyl ester homeostasis but also for generation of substrate for visual chromophore biosynthesis. The data shown in panel A of FIG. 16 illustrate the inhibitory effect of HPR on the rate of retinyl ester synthesis. In this assay, bovine RPE microsomes are used as an enzyme source and all-trans retinol (atROL) is the substrate. […] A secondary transformation (Eadie-Hofstee) of the kinetic data in panel A reveal that the mode of inhibition is competitive (see FIG. 16, panel B). Therefore, HPR competes with atROL for binding sites on LRAT. The apparent inhibition constant (Ki) was determined to be ˜6 μM. This means that at 6 μM HPR, the rate of retinyl ester synthesis would be decreased by 50%. In a separate study, we have determined that HPR concentrations in the RPE approach 10 μM with a 10 mg/kg dose of HPR.

[3] = system: 11-cis retinol biosynthesis; test: In vitro 11-cis retinol production by bovine RPE membranes; type: biochemical; details: 10 μM HPR, p<0.05
Procedure: as §1

abca4 null mutant mice = test: A2PE-H2 and A2E as a function of HPR dose, 28 days; type: in vivo, mouse; details: HPR daily for 28 days, several doses
Procedure: Group averages from the data shown in panels A-G of FIG. 18 in Example 25 (28 day time points) are plotted to illustrate the strong correlation between increases in serum HPR and decreases in serum retinol (see FIG. 12). Reductions in serum retinol are highly correlated with reductions in A2E and precursor compounds (A2PE-H2). A pronounced reduction in A2PE-H2 in the 2.5 mg/kg dosage group (˜47%) is observed when the serum retinol reduction is only 20%. The reason for this disproportionate reduction is related to the inherently lower ocular retinoid content in this group of 2-month old animals compared to the other groups. It is likely that if these animals had been maintained on the 2.5 mg/kg dose for a more prolonged period, a greater reduction in A2E would also be realized.
ABCA4 null mutant mice were given the indicated dose of HPR in DMSO or DMSO alone daily for 28 days (n=16 mice per treatment group). At study onset, mice in the 2.5 mg/kg group were 2 months of age, mice in the other treatment groups were 3 months of age. At the indicated times, representative mice were taken from each group (n=4) for analysis of A2E precursor compounds (see FIG. 18, A2PE-H2, panels A, C and E) and A2E (see FIG. 18, panels B, D and F). […] Sample extracts were analyzed by LC. […]

LRAT [4] = molecular target: T2, LRAT (Homo sapiens, UniProt O95237); details: cited from earlier work
T2 construct: host or cells: membranes from liver and small intestine
T2 sequence (O95237 1-230): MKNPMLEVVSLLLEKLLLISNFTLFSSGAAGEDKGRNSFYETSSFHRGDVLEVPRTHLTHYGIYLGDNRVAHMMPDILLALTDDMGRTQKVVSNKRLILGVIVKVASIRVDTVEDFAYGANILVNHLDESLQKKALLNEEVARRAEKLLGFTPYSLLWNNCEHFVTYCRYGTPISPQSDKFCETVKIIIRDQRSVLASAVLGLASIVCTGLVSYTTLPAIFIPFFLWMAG

mice = test: Retinoid composition, chromophore regeneration and electrophysiology in HPR-treated mice; type: in vivo; details: 10 mg/kg daily for 28 days
From the text: Panels D-F of FIG. 17 are electrophysiological measurements of rod function (panel D), rod and cone function (panel E) and recovery from photobleaching (panel F).

apo-CRALBP = molecular target: T3, apo-CRALBP (Homo sapiens, UniProt P12271); test: Ni+ affinity column and spectroscopic analysis of binding to CRALBP; details: 10 μM apo-CRALBP, 20 μM ligand
T3 construct: made in house
T3 sequence (P12271 whole entry, species assumed): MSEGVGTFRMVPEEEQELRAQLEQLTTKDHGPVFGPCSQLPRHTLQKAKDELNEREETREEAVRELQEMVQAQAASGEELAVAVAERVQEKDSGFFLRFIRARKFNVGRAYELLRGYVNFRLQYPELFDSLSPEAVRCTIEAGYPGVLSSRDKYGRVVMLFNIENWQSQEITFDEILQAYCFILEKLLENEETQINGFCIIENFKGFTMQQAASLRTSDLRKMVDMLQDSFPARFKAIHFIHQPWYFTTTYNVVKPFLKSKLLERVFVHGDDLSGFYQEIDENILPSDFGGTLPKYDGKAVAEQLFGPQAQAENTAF
Procedure: In order to confirm data obtained during fluorescence analysis of HPR binding to CRALBP, a second analysis was performed using affinity chromatography and spectroscopic analysis. The recombinant apo-CRALBP was constructed with a histidine tag which is utilized to purify the protein on a Ni+ affinity column following expression cloning. Here, we utilized this feature of apo-CRALBP to specifically “trap” the protein and any protein-ligand species for spectroscopic analysis. Two binding mixtures were prepared containing apo-CRALBP (10 μM) and either 11cRAL (20 μM) or HPR (20 μM). In control experiments for the analysis of non-specific ligand binding onto the affinity matrix, we prepared two additional mixtures containing only 11cRAL (20 μM) or HPR (20 μM) in binding buffer. The binding mixtures were passed through separate Ni+ affinity columns and the columns were washed extensively to elute unbound protein and ligand. Following the addition of elution buffer, the eluted fractions were analyzed by spectroscopy. […] Instead, two absorption maxima are seen: one at 280 nm and a second at 360 nm, which is attributable to the absorption of HPR (see FIG. 14).

Compound: CC1=C(/C=C/C(C)=C/C=C/C(C)=C/C(=O)Nc2ccc(O)cc2)C(C)(C)CCC1 [HPR, N-(4-hydroxyphenyl)retinamide]
- plasma concentration after high fat meals versus carbohydrate meals [1]: three times greater
- mode of inhibition of LRAT (LRAT [2]; Eadie-Hofstee transformation): competitive
- net retinyl ester synthesis (LRAT [2]; bovine RPE microsomes, atROL substrate): decreases net retinyl ester synthesis in a concentration-dependent manner
- Ki (LRAT [2]; bovine RPE microsomes, atROL substrate, read-out: apparent inhibition constant (Ki), LRAT): ~6 µM
- IC50 (LRAT [2]; membranes from bovine RPE, exogenous all-trans retinol, read-out: half-maximal inhibition of LRAT): ~20 µM
- effect on 11-cis retinol biosynthesis [3]: statistically significant inhibition
- A2PE-H2 and A2E during the study period (abca4 null mutant mice): dose-dependent reductions
- LRAT activity in membranes prepared from liver and small intestine (LRAT [4]): marked inhibition
- regeneration of visual chromophore (mice): does not affect
- binding to apo-CRALBP by absorption spectra of eluted fraction (apo-CRALBP): binds apo-CRALBP
